Test results taken from US11389456B2, “Compounds and methods for treating oxalate-related diseases” (OxaluRx, Inc., priority 2018, dated 2022).
Values after ≈ are worked out from the molar mass of the structure shown.

Key:
[1] = Stability in human plasma; format: in vitro ADME; conditions: read-out: Plasma Stability T1/2
Protocol: Stability in Human Plasma.
Stock compounds were prepared for testing the stability in human plasma. First, 0.05 M sodium phosphate and 0.07 M NaCl buffer, pH 7.4, were pre-heated. In deionized water, 14.505 g/L Na2HPO 12H2O, 1.483 g/L NaH2PO4.2H2O and 4.095 g/L NaCl were dissolved. The basic solution was titrated with the phosphoric acid to pH 7.40. Frozen plasma was quickly thawed at 37° C. The plasma was centrifuged at 3,000 rpm for 8 minutes to remove clots, then pipetted and pooled as the plasma stock for the experiment. Only plasma within the range of pH 7.4 to pH 8 was used. If higher than pH 8, the plasma was discarded. The initial pH of the plasma was not adjusted to pH 7.4 with acid or by bubbling with carbon dioxide. By using a 5% carbon dioxide incubator and PBS buffer, a pH of 7.4 will be reached after the 4-hour equilibrium dialysis time. Plasma was iced until use.
Spiking solution A with 0.5 mM testing compounds was prepared by adding 10 μL of 10 mM test compounds stock solution to 190 μL DMSO. Spiking solution B with 0.02 mM testing compound was prepared by adding 40 μL of spiking solution A to 960 μL of […] sodium phosphate buffer with 0.5% BSA. The plasma and spiking solution B were prewarmed at 37° C. for 5 minutes. Ten μL of pre-warmed spiking solution B was added into the wells designated for all the time points (5, 15, 30, 45, 60 minutes). For the 0-minute timepoint, 400 μL acetonitrile containing internal standard were added to the wells of 0-minute plate and then 90 μL plasma were added. For the other timepoints, 90 μL of pre-warmed plasma were added into the wells (0, 5, 15, 30, 45, 60 minutes) and the timing was started. At 5, 15, 30, 45, 60 minutes, 400 μL acetonitrile containing internal standard were added to the wells of corresponding plates, respectively, to stop the reaction. After quenching, the plates were shaken on a vibrator (IKA, MTS 2/4) for 10 minutes at 600 rpm and then centrifuged at 5594×g for 15 minutes (Thermo Multifuge×3R). Fifty μL of supernatant was transferred from each well into a 96-well sample plate containing 50 μL ultra-pure water (Millipore, ZMQS50F01) for LC/MS analysis.

[2] = Metabolic stability in human liver microsomal preparation; format: in vitro ADME; conditions: pH 7.4, human liver microsomes, NADPH, 37° C.; for half-life at 1 μM: 0-45 min, read-out: Metabolic Stability t1/2
Protocol: For evaluating the metabolic stability in human liver microsomal preparation, three buffers were prepared. Buffer A had 1.0 L of 0.1 M monobasic potassium phosphate buffer containing 1.0 mM EDTA. Buffer B had 1.0 L of 0.1 M dibasic potassium phosphate buffer containing 1.0 mM EDTA. Buffer C had 0.1 M potassium phosphate buffer, 1.0 mM EDTA, adjusted to a pH 7.4 via titrating 700 mL buffer B with buffer A. Reference compound (ketanserin) and test compounds spiking solutions (500 μM) were prepared by adding 10 μL of 10 mM DMSO stock compound solution into 190 μL acetonitrile. A volume of 1.5 μL 500 μM spiking solution and 18.75 μL 20 mg/mL human liver microsomes were added into 479.75 μL of Buffer C on ice. A stock solution of 6 mM NADPH was prepared by dissolving NADPH into Buffer C.
Wells on an assay plate were iced and filled with 30 μL 1.5-μM spiking solution containing 0.75 mg/mL microsomes solution and designated for different timepoints (0-, 5-, 15-, 30-, 45-min). For the 0-min timepoint, 135 μL acetonitrile containing internal standard were added followed by 15 μL of NADPH stock solution (6 mM). All other plates were preincubated at 37° C. for 5 minutes and 15 μL NADPH stock solution (6 mM) were added to the plates to start the reaction. At 5-min, 15-min, 30-min, and 45-min, 135 μL acetonitrile containing internal standard were added to the wells of corresponding plates, respectively, to stop the reaction. After quenching, the plates were shaken on the vibrator (IKA, MTS 2/4) for 10 min at 600 rpm and then centrifuged at 5594×g for 15 minutes (Thermo Multifuge×3R). Fifty μL supernatant from each well were transported into a 96-well sample plate containing 50 μL of ultra-pure water (Millipore, ZMQS50F01) for LC/MS analysis.

[3] = Solubility in aqueous solution (deionized, distilled water); format: physicochemical; conditions: kinetic from dmso stock, 1% DMSO, read-out: Aqueous Solubility H2O
Protocol: (§1) For testing compound solubility in phosphate buffered saline (PBS), compound stock solutions were prepared at 10 mM in 100% DMSO. For testing in aqueous solution, the phosphate buffer was replaced with deionized, distilled water. Eleven grams Na2HPO4 (FW: 141.96 g/mol) and 3.5 g NaH2PO4.2H2O (FW: 156.03 g/mol) was added to 1 L Milli-Q water and adjusted to a pH to 7.4 with phosphoric acid or sodium hydroxide. For incubation, media were preheated to 37° C. Eight μL aliquots of reference and test compound stock solutions (10 mM) were added into 792 μL of 100 mM phosphate buffer (pH 7.4). The final DMSO concentration was 1%. Sample tubes were shaken for 1 hour at 1000 rpm at room temperature.
(§2) The calibration curve was prepared with 300-μM spiking solution (SS) in MeOH:acetonitrile (4:1). Six μL of 10 mM compound was added in 194 μL MeOH/acetonitrile (4:1). Samples were centrifuged for 10 minutes at 12,000 rpm to precipitate undissolved particles. Supernatants were transferred to a new tube or plate and dilute 10-fold and 100-fold with 100 mM buffer. Samples were prepared for LC-MS/MS analysis by adding 5 μL each sample (undiluted, 10-fold diluted, and 100-fold diluted) and 5 μL of standard curve samples to 95 μL of acetonitrile (containing internal standard).

[4] = Protein binding (plasma equilibrium dialysis); format: in vitro ADME; conditions: 5 hours at 37° C.; for fraction unbound at 5 h, 1 μM: read-out: Protein Binding Fraction Bound (converted)
Protocol: For testing protein binding of stock compounds solubilized in DMSO, spiking solutions of test and reference compounds were prepared. Solution A (0.5 mM) was prepared by adding 10 μL of 10 mM stock solution into 190 μL of DMSO. Solution B (0.02 mM) was prepared by adding 8 μL of Solution A into 192 μL of 0.05 M sodium phosphate buffer. The final DMSO concentration in Solution B was 4%.
To prepare test and reference compounds in plasma, a 96-well plate with 380 μL aliquots of plasma in the wells designed for plasma and buffer, respectively. Twenty μL of Solution B (0.02 mM of test and reference compounds) were spiked into the pre-loaded plasma in the 96-well plate. The final test concentration is 1 μM containing 0.2% DMSO.
For dialysis sample loading a plasma again buffer system was prepared by applying aliquots of 100 μL of blank dialysis buffer to the receiver side of dialysis chambers and then applying aliquots of 100 μL of the plasma spiked with test and reference compounds to the donor side of the dialysis chamber. A 25-μL aliquot of the plasma spiked with test and reference compounds was added into a 96-well sample preparation plate as T″0″ plasma samples. Aliquots were mixed with the same volume of blank buffer (50:50, volume:volume). Samples were quenched with 200 μL of acetonitrile containing internal standard. The dialysis block was covered and a shaken at 60 rpm for 5 hours at 37° C.
After a 5-hour incubation, dialyzed samples were prepared from 25-μL aliquots from both the donor and receiver sides of the dialysis apparatus into new sample preparation plates. The aliquots were mixed with same volume of opposite matrixes. The samples were quenched with 200 μL acetonitrile containing internal standard. All 0-hour and 5-hour samples were vortexed at 600 rpm for 10 min followed by centrifugation at 5594×g for 15 minutes (Thermo Multifuge×3R). Fifty μL of the supernatants were transferred to anew 96-well plate and mixed with 50 μL Milli-Q water. The sample plate was covered and frozen at −20° C. until LC/MS/MS analysis.

[5] = target: recombinant full-length human hydroxyacid oxidase 1 (HAO1), the equivalent of hGOX (Homo sapiens (Human), UniProt Q9UJM8); test: In-vitro human glycolate oxidase (hGOX) assay (Amplex red/HRP fluorescence); format: biochemical
recombinant full-length human hydroxyacid oxidase 1 (HAO1), the equivalent of hGOX, sequence (Q9UJM8 whole entry): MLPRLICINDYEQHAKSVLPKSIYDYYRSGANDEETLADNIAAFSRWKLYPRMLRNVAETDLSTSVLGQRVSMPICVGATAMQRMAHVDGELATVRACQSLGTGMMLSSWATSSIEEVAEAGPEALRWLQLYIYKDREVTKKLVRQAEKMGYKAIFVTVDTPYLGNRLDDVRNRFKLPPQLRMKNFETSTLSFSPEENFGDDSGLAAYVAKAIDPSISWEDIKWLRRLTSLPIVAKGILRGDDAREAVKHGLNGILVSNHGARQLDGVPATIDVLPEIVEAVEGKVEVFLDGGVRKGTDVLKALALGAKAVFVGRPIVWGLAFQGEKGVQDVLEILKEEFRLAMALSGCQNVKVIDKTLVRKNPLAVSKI
Protocol: Biological Activity Assay: In-Vitro Human Glycolate Oxidase (hGOX) Assay
The in-vitro glycolate oxidase assay was performed using recombinant full-length human hydroxyacid oxidase 1 (HAO1), the equivalent of hGOX. […] Purified HAO1 was dissolved in assay buffer consisting of 10 mM NaCl, 110 mM KCl, 2 mM MgCl2, 50 mM HEPES (pH 7.4) and 0.01% Triton™ X-100.

[6] = Solubility in phosphate buffered saline (PBS), pH 7.4; format: physicochemical; conditions: phosphate buffer (PBS), aqueous buffer, kinetic from dmso stock; phosphate buffered saline pH 7.4, 1% DMSO, 1 hour shaking at room temperature
Protocol: as §1, §2

Compound | half-life at 2 μM [1] | CLint scaled at 1 μM [2] | half-life at 1 μM [2] | solubility at 1 h [3] | recovery at 5 h, 1 μM [4] | fraction unbound at 5 h, 1 μM [4] | IC50 [5] | solubility at 1 h [6]
O=C(O)c1nn[nH]c1Oc1cccc(S(F)(F)(F)(F)F)c1 [Example I-269, 5-(3-Pentafluorosulfanylphenoxy)-1H-1,2,3-triazole-4-carboxylic acid] | 2.19 h | < 0.15 mL/min/kg | > 83.3 h | 103 µM (≈ 34.2 µg/mL) | 91.8% | 0.01 | 105 nM | 109 µM (≈ 36 µg/mL)
O=C(O)c1nn[nH]c1Oc1ccc(-c2ccccc2)cc1 [Example I-150, 5-([1,1′-Biphenyl]-4-yloxy)-1H-1,2,3-triazole-4-carboxylic acid] | 0.747 h | 3.04 mL/min/kg | 8.78 h | 83.1 µM (≈ 23.4 µg/mL) | 100% |  | 23 nM | 95.7 µM (≈ 26.9 µg/mL)
COc1ccc(-c2ccc(Oc3[nH]nnc3C(=O)O)cc2)cc1OC [Example I-270, 5-((3′,4′-Dimethoxy-[1,1′-biphenyl]-4-yl)oxy)-1H-1,2,3-triazole-4-carboxylic acid] | 5.2 h | 2.72 mL/min/kg | 10.6 h | 109 µM (≈ 37.2 µg/mL) | 101% | 0.008 | 13 nM | < 0.2 µM
O=C(O)c1nn[nH]c1Oc1ccc(C2CC2)cc1 [Example I-294, 5-(4-Cyclopropylphenoxy)-1H-1,2,3-triazole-4-carboxylic acid] | 1.71 h | 3.4 mL/min/kg | 8.52 h | 108 µM (≈ 26.4 µg/mL) | 111% |  | 53 nM | 108 µM (≈ 26.4 µg/mL)
CCC(CC)c1ccc(Oc2[nH]nnc2C(=O)O)cc1 [Example I-272, 5-(4-(Pentan-3-yl)phenoxy)-1H-1,2,3-triazole-4-carboxylic acid] | 4.61 h | 65.3 mL/min/kg | 0.443 h | 96.6 µM (≈ 26.6 µg/mL) | 101% |  | 84 nM | 103 µM (≈ 28.3 µg/mL)
O=C(O)c1nn[nH]c1Oc1cccc(C2CCCC2)c1 [Example I-267, 5-(3-Cyclopentylphenoxy)-1H-1,2,3-triazole-4-carboxylic acid] | 1.15 h | < 0.15 mL/min/kg | > 83.3 h | 82.6 µM (≈ 22.6 µg/mL) | 113% |  | 35 nM | 79.8 µM (≈ 21.8 µg/mL)
CCC(CC)c1cccc(Oc2[nH]nnc2C(=O)O)c1 [Example I-276, 5-(3-(Pentan-3-yl)phenoxy)-1H-1,2,3-triazole-4-carboxylic acid] | 3.2 h | 5.95 mL/min/kg | 4.87 h | 103 µM (≈ 28.4 µg/mL) | 108% | 0.006 | 23 nM | 109 µM (≈ 30 µg/mL)
O=C(O)c1nn[nH]c1Sc1ccc(-c2ccccc2)cc1 [Example I-128, 5-([1,1′-Biphenyl]-4-ylthio)-1H-1,2,3-triazole-4-carboxylic acid] | 0.755 h | 10.1 mL/min/kg | 2.87 h | 106 µM (≈ 31.5 µg/mL) | 126% |  | 227 nM | 122 µM (≈ 36.4 µg/mL)
O=C(O)c1nn[nH]c1Oc1ccc(-c2ccc3ccccc3c2)cc1 [Example I-177, 5-(4-(Naphthalen-2-yl)phenoxy)-1H-1,2,3-triazole-4-carboxylic acid] | 1.12 h | 3.07 mL/min/kg | 9.43 h | 45.7 µM (≈ 15.1 µg/mL) | 99.3% |  | 12 nM | 89.3 µM (≈ 29.6 µg/mL)
CS(=O)(=O)c1ccc(-c2ccc(Oc3[nH]nnc3C(=O)O)cc2)cc1 [Example I-167, 5-((4′-(methylsulfonyl)-[1,1′-biphenyl]-4-yl)oxy)-1H-1,2,3-triazole-4-carboxylic acid] | 6.19 h | 1.7 mL/min/kg | 17 h | 112 µM (≈ 40.4 µg/mL) | 95.5% |  | 8 nM | 116 µM (≈ 41.9 µg/mL)
COc1cc(-c2ccc(Oc3[nH]nnc3C(=O)O)cc2)ccc1F [Example I-271, 5-((4′-Fluoro-3′-methoxy-[1,1′-biphenyl]-4-yl)oxy)-1H-1,2,3-triazole-4-carboxylic acid] | 2.82 h | 3.49 mL/min/kg | 8.31 h | 90.1 µM (≈ 29.7 µg/mL) | 110% | 0.01 | 7 nM | 110 µM (≈ 36.2 µg/mL)
